Laboratory results: paper PMC6022228, “Introducing novel potent anticancer agents of 1H-benzo[f]chromene scaffolds, targeting c-Src kinase enzyme with MDA-MB-231 cell line anti-invasion effect” (Journal of Enzyme Inhibition and Medicinal Chemistry, 2018)
≈ marks a conversion by molar mass, not a printed value. Where “and” joins values, the source holds several entries; their conditions need not be identical. Equal values may be shown once.

How the values were obtained:
MCF-7 = assay: MTT viability assay, MCF-7 (breast cancer); format: cell-based; settings: Homo sapiens, MCF7, 24 h incubation, mean ± standard error
Protocol: (§1) Compounds 4a–h and 6a–h were initially evaluated for in vitro antitumour activity against three different human cell lines: MCF-7, HCT-116, and HepG-2, and only the representative active cytotoxic compounds were further evaluated against the normal HFL-1 cell line. The in vitro cytotoxicity evaluation was performed at the Regional Center for Mycology & Biotechnology (RCMP), Al-Azhar University under different concentrations (50, 25, 12.5, 6.25, 3.125, 1.56, and 0 µg/mL); Vinblastine and Doxorubicin are used as reference cytotoxic compounds. The measurements of cell growth and the in vitro cytotoxicity evaluation were determined using viability assay as described in literature[31–33] and the result was cited in Table 1 and Figure 2.
(§2) The in vitro cytotoxic evaluation of the prepared compounds 4a–h and 6a–h was performed against MCF-7 (breast cancer), HCT-116 (human colon cancer), HepG-2 (liver cancer), and HFL-1(normal fibroblast lung) using the 3-(4,5-dimethylthiazol-2-yl)-2,5-diphenyl tetrazolium bromide (MTT) colorimetric assay as described in literature. […] The results were expressed as growth inhibitory concentration (IC50) values, which represent the compounds’ concentrations required to produce a 50% inhibition of the cell growth after 24 h of incubation, compared to the untreated controls as shown in Table 1 and Figure 2.

HCT-116 = assay: MTT viability assay, HCT-116 (human colon cancer); format: cell-based; settings: 24 h incubation, mean ± standard error
Protocol: as §1, §2

HepG-2 = assay: MTT viability assay, HepG-2 (liver cancer); format: cell-based; settings: Homo sapiens, HepG2, 24 h incubation, mean ± standard error
Protocol: as §1, §2

HFL-1 = assay: MTT viability assay, HFL-1 (normal fibroblast lung); format: cell-based; settings: Homo sapiens, HFL1, 24 h incubation, normal cell line, mean ± standard error
Protocol: as §1, §2

[1] = test system: caspases 3/7 in MDA-MB-231 cells; assay: Caspase-Glo 3/7 activity assay; format: cell-based; settings: Homo sapiens, 24 h treatment, 10 concentrations, read-out: Caspase-Glo 3/7 activity assay, MDA-MB-231 cell line, IC50
Protocol: The Caspase-Glo 3/7 activity assay was performed by Reaction Biology Corporation, One Great Valley Parkway, PA. Examined compounds 4c, 4e, 4h, 6d, and 6e were dissolved in DMSO as 20 mM stock and tested for their ability to Caspase-Glo 3/7 activity assay. […] Caspase-Glo 3/7 activity assay reagent was purchased from Promega (Madison, WI). MDA-MB-231 cell line was provided by ATCC. MDA-MB-231 cell line culture conditions: DMEM with 10% FBS. 100 µg/mL penicillin and 100 µg/mL streptomycin were added to the culture media. Cultures were maintained at 37 °C in a humidified atmosphere of 5% CO2 and 95% air.
Caspases are […] that promote apoptosis. Caspases are vital biochemical features of apoptotic signalling. […] To determine whether the cell growth inhibition in response to the benzochromene derivatives was mediated by apoptosis and was caspase dependent, MDA-MB-231 cells were treated with 10 different concentrations of the target compounds for 24 h.

c-Src kinase = molecular target: T1, c-Src kinase (Homo sapiens, UniProt P12931); assay: c-Src kinase assay (HTScan Src Kinase Assay Kit); format: biochemical; settings: GST-Src kinase, triplicate; read-out: Inhibition of c-Src kinase activity, IC50
T1 construct: purchased Cell Signaling Technology (Danvers, MA) 7776
Protocol: Streptavidin-coated plates were purchased from Pierce (Rockford, IL). […] The reaction mixture was incubated for 30 min at room temperature. The kinase reaction was stopped with the addition of 50 µL of 50 mM EDTA (pH 8.0). […] At the end of the incubation, the wells were washed three times with 200 µL of 0.05% Tween-20 in PBS buffer (PBS/T). After that to each well was added 100 µL of phosphotyrosine antibody (P-Tyr-100) (1:1000 dilution in PBS/T with 1% BSA) and the wells were incubated for another 60 min. After washing three times with 0.05% Tween-20 in PBS/T, the wells were incubated with 100 µL secondary anti-mouse IgG antibody, which was HRP-conjugated (1:500 dilution in PBS/T with 1% BSA) for next 30 min at room temperature. The wells were washed five times with 0.05% Tween-20 in PBS and then were incubated with 100 µL of 3,3′,5,5′-tetramethylbenzidine dihydrochloride substrate for 5 min. […] IC50 values of the compounds were calculated using ORIGIN 6.0 (Origin Lab Corporation, Northampton, MA) software. […] All the experiments were carried out in triplicate.

T1 sequence (P12931 whole entry): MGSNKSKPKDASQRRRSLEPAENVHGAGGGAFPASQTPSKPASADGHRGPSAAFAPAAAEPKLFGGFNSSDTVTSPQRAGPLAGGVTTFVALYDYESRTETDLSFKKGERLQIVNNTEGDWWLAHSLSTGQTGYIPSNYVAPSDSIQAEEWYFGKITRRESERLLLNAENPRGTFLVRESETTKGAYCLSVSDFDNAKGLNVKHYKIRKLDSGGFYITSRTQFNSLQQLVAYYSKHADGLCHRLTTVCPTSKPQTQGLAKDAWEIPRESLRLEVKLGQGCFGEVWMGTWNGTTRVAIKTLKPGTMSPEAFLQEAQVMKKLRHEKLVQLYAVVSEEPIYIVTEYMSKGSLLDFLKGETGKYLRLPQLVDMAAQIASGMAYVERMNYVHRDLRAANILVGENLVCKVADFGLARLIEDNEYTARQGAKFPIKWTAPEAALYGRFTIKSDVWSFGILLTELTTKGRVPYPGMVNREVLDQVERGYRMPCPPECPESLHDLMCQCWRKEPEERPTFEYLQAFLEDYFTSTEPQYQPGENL

Row | SMILES | IC50 (MCF-7) [µg/mL] | IC50 (HCT-116) [µg/mL] | IC50 (HepG-2) [µg/mL] | melting point [°C] | IC50 (HFL-1) [µg/mL] | IC50 [1] [nM] | IC50 (c-Src kinase)
1 | N#CC1=C(N)Oc2ccc3cc(Br)ccc3c2C1c1ccccc1 (stereo not drawn) [Compound 4a, 3-Amino-8-bromo-1-phenyl-1H-benzo[f]chromene-2-carbonitrile] | 0.9 ± 0.29 (≈ 2.39 µM) | 1.2 ± 0.97 (≈ 3.18 µM) | 0.7 ± 0.5 (≈ 1.86 µM) | 245 to 246 |  |  | 
2 | N#CC1=C(N)Oc2ccc3cc(Br)ccc3c2C1c1ccc(F)cc1 (stereo not drawn) [Compound 4b, 3-Amino-8-bromo-1-(4-fluorophenyl)-1H-benzo[f]chromene-2-carbonitrile] | 5.2 ± 0.03 (≈ 13.2 µM) | 1 ± 0.12 (≈ 2.53 µM) | 0.8 ± 0.12 (≈ 2.02 µM) | 242 to 243 |  |  | 
3 | N#CC1=C(N)Oc2ccc3cc(Br)ccc3c2C1c1ccc(Br)cc1 (stereo not drawn) [Compound 4d, 3-Amino-8-bromo-1-(4-bromophenyl)-1H-benzo[f]chromene-2-carbonitrile] | 2.5 ± 0.14 (≈ 5.48 µM) | 0.5 ± 0.35 (≈ 1.1 µM) | 1.8 ± 0.2 (≈ 3.95 µM) | 250 to 251 |  |  | 
4 | Cc1ccc(C2C(C#N)=C(N)Oc3ccc4cc(Br)ccc4c32)cc1 (stereo not drawn) [Compound 4e, 3-Amino-8-bromo-1-(4-methylphenyl)-1H-benzo[f]chromene-2-carbonitrile] | 2.5 ± 0.18 (≈ 6.39 µM) | 0.7 ± 0.25 (≈ 1.79 µM) | 0.9 (≈ 2.3 µM) | 215 to 216 | 22.4 ± 0.21 (≈ 57.2 µM) | 19500 | 9 nM
5 | COc1ccc(C2C(C#N)=C(N)Oc3ccc4cc(Br)ccc4c32)cc1 (stereo not drawn) [Compound 4f, 3-Amino-8-bromo-1-(4-methoxyphenyl)-1H-benzo[f]chromene-2-carbonitrile] | 3.8 ± 0.36 (≈ 9.33 µM) | 44.9 ± 0.14 (≈ 110 µM) | 4.4 ± 0.05 (≈ 10.8 µM) | 234 to 235 |  |  | 
6 | COc1ccc(C2C(C#N)=C(N)Oc3ccc4cc(Br)ccc4c32)c(OC)c1 (stereo not drawn) [Compound 4g, 3-Amino-8-bromo-1-(2,4-dimethoxyphenyl)-1H-benzo[f]chromene-2-carbonitrile] | 3.6 ± 0.01 (≈ 8.23 µM) | 3.7 ± 0.15 (≈ 8.46 µM) | 2.8 ± 0.17 (≈ 6.4 µM) | 220 to 221 |  |  | 
7 | COc1ccc(C2C(C#N)=C(N)Oc3ccc4cc(Br)ccc4c32)cc1OC (stereo not drawn) [Compound 4h, 3-Amino-8-bromo-1-(3,4-dimethoxyphenyl)-1H-benzo[f]chromene-2-carbonitrile] | 0.66 ± 0.04 (≈ 1.51 µM) | 4.1 ± 0.16 (≈ 9.38 µM) | 11 ± 0.02 (≈ 25.2 µM) | 200 to 201 | 12.9 ± 0.13 (≈ 29.5 µM) | 31500 | 214 to 329 nM and 214 nM
8 | COc1ccc2c3c(ccc2c1)OC(N)=C(C#N)C3c1ccccc1 (stereo not drawn) [Compound 6a, 3-Amino-1-phenyl-8-methoxy-1H-benzo[f]chromene-2-carbonitrile] | 2.7 ± 0.2 (≈ 8.22 µM) | 2.1 ± 0.23 (≈ 6.4 µM) | 11.2 ± 0.18 (≈ 34.1 µM) | 237 to 238 |  |  | 
9 | COc1ccc2c3c(ccc2c1)OC(N)=C(C#N)C3c1ccc(F)cc1 (stereo not drawn) [Compound 6b, 3-Amino-1-(4-flourophenyl)-8-methoxy-1H-benzo[f]chromene-2-carbonitrile] | 4.4 ± 0.05 (≈ 12.7 µM) | 4.9 ± 0.01 (≈ 14.1 µM) | 0.5 ± 0.01 (≈ 1.44 µM) | 256 to 257 |  |  | 
10 | COc1ccc2c3c(ccc2c1)OC(N)=C(C#N)C3c1ccc(Cl)cc1 (stereo not drawn) [Compound 6c, 3-Amino-1-(4-chlorophenyl)-8-methoxy-1H-benzo[f]chromene-2-carbonitrile] | 3.1 ± 0.29 (≈ 8.54 µM) | 2.5 ± 0.97 (≈ 6.89 µM) | 0.3 ± 0.08 (≈ 0.827 µM) | 247 to 248 |  |  | 
11 | COc1ccc2c3c(ccc2c1)OC(N)=C(C#N)C3c1ccc(Br)cc1 (stereo not drawn) [Compound 6d, 3-Amino-1-(4-bromophenyl)-8-methoxy-1H-benzo[f]chromene-2-carbonitrile] | 2 ± 0.25 (≈ 4.91 µM) | 0.9 ± 0.58 (≈ 2.21 µM) | 0.7 ± 0.13 (≈ 1.72 µM) | 261 to 262 | 35.5 ± 0.22 (≈ 87.2 µM) | 25600 | 214 to 329 nM and 329 nM
12 | COc1ccc(C2C(C#N)=C(N)Oc3ccc4cc(OC)ccc4c32)cc1 (stereo not drawn) [Compound 6f, 3-Amino-8-methoxy-1-(4-methoxyphenyl)-1H-benzo[f]chromene-2-carbonitrile] | 0.6 ± 0.08 (≈ 1.67 µM) | 3.8 ± 0.14 (≈ 10.6 µM) | 29.3 ± 0.12 (≈ 81.8 µM) | 222 to 223 |  |  | 
13 | COc1ccc(C2C(C#N)=C(N)Oc3ccc4cc(OC)ccc4c32)c(OC)c1 (stereo not drawn) [Compound 6g, 3-Amino-1-(2,4-dimethoxyphenyl)-8-methoxy-1H-benzo[f]chromene-2-carbonitrile] | 16 ± 0.92 (≈ 41.2 µM) | 10.9 ± 0.5 (≈ 28.1 µM) | 9 ± 0.3 (≈ 23.2 µM) | 210 to 211 |  |  | 
14 | COc1ccc2c3c(ccc2c1)OC(N)=C(C#N)C3c1ccc(OC)c(OC)c1 (stereo not drawn) [Compound 6h, 3-Amino-1-(3,4-dimethoxyphenyl)-8-methoxy-1H-benzo[f]chromene-2-carbonitrile] | 41.1 ± 0.25 (≈ 106 µM) | 13.9 ± 0.3 (≈ 35.8 µM) | 30.7 ± 0.5 (≈ 79 µM) | 200 to 201 |  |  | 
15 | COc1cccc2c1C(=O)c1c(O)c3c(c(O)c1C2=O)C[C@@](O)(C(=O)CO)C[C@@H]3O[C@H]1C[C@H](N)[C@H](O)[C@H](C)O1 [Doxorubicin, reference compound] | 0.4 ± 0.01 (≈ 0.736 µM) | 0.5 ± 0.015 (≈ 0.92 µM) | 0.9 ± 0.04 (≈ 1.66 µM) |  |  |  | 
16 | CN[C@@H]1C[C@H]2O[C@@](C)([C@@H]1OC)n1c3ccccc3c3c4c(c5c6ccccc6n2c5c31)C(=O)NC4 [Staurosporine, staurosporine, reference compound] |  |  |  |  |  | 68.5 | 
17 | CC[C@]1(O)C[C@@H]2CN(CCc3c([nH]c4ccccc34)[C@@](C(=O)OC)(c3cc4c(cc3OC)N(C)[C@H]3[C@@](O)(C(=O)OC)[C@H](OC(C)=O)[C@]5(CC)C=CCN6CC[C@]43[C@@H]65)C2)C1 [Vinblastine, reference compound] | 6.1 ± 0.03 (≈ 7.52 µM) | 2.6 ± 0.08 (≈ 3.21 µM) | 4.6 ± 0.01 (≈ 5.67 µM) |  |  |  | 
